Literature values, collected in US20250049677A1, “Oxa-Macrocyclic Musk as Fragrance Compounds” (Symrise AG, priority 2021, published 2025).

Legend:
[1] = background statement on prior art
[2] = background statement on prior art; remark: listed apart in the source

Solubility in water [1]: only very slightly soluble in water
Biodegradability [2]: badly biodegradable
SMILES: C[C@@H]1CCCCCCCCCCCCC(=O)C1 [Muscone, (R)-3-methylcyclopentadecanone]
